Each compound was assayed on carageenan-induced edema (assay: Carrageenan-induced rat paw edema test (anti-inflammatory activity)). Details: Rattus norvegicus, po, 3 h, rat paw edema, 50 mg/kg, reading 3 hours after carrageenan; [(Control−Test)/Control]×100%; read-out: % Protection P.
Assay type: in vivo, Sprague-Dawley rats
Description: Sprague-Dawley rats, male and female, 150-250 g will be used in an edema test. Rats will be deprived of food but not water for 18 hours prior to the experiment. The test compounds will be administered with a blunt-tipped needle orally, 50 mg/kg, as a suspension in 0.1% sodium CMC (carboxymethylcellulose) vehicle. Alternatively, the test compounds will be injected intravenously, subcutaneously, or intraperitoneally. One hour later, 0.1 ml of a 1% carrageenan solution in saline will be injected in the sub-plantar region of the right hind paw of each rat. […] The reading will be repeated 3 hours later. The displacement readings give a measure of carageenan-induced edema. Any reduction in carageenan-induced edema with a test compound, as compared to saline control, is a measure of the anti-inflammatory activity of the test compound. The percentage protection at 50-mg/kg doses was calculated according to the following formula: % Protection=[(Control−Test)/Control]×100%.
Following treatment, the media from the VSMC and HUVEC incubations were removed, and the amount of lactate dehydrogenase (LDH) released into the medium was determined with a commercial kit and expressed as a % increase over vehicle-treated cells. HPT toxicity was determined by the ethidium homodimer (EthHD) uptake assay. […] The lead compounds were also tested in two pairs of cell lines from the skin or prostate, one tumorigenic and one non-tumorigenic, to test for differing toxicity or heightened sensitivity in the tumorigenic lines. The cells were treated for 48 h with vehicle (0.1% DMSO) or 10 μM of each drug candidate, and the viability of the cells was determined by the MTT assay, expressed as a % decrease in viability compared to vehicle-treated cells. The in vivo inflammation model measured the % inhibition of rat paw edema induced by carageenan injection.
`O=c1c2ccccc2nc(-c2cc(-c3ccccc3)c(N3CCOCC3)s2)n1-c1ccccc1Cl` [Example 304, 3-(2-Chlorophenyl)-2-(5-morpholin-4-yl-4-phenyl-thiophen-2-yl)-3H-quinazolin-4-one] was tested, and the inhibition in vivo at 50 mg/kg was 37%.
In the case of `O=c1c2ccccc2nc(-c2cc(-c3ccc(Cl)cc3)c(N3CCOCC3)s2)n1-c1ccccc1Cl` [Example 305, 2-[4-(4-Chlorophenyl)-5-morpholin-4-yl-thiophene-2-yl]-3-(2-chlorophenyl)-3H-quinazolin-4-one], the inhibition in vivo at 50 mg/kg is reported as 40%.
`CS(=O)(=O)c1ccc(-c2cc(-c3nc4ccccc4c(=O)n3-c3ccccc3Cl)sc2N2CCOCC2)cc1` [Example 307, 2-[4-(4-Methanesulphonyl-phenyl)-5-morpholin-4-yl-thiophen-2-yl]-3-(2-chloro-phenyl)-3H-quinazolin-4-one] gave an inhibition in vivo at 50 mg/kg of 31%.
With `CN1CCN(c2sc(-c3nc4ccccc4c(=O)n3-c3ccc(Cl)cc3)cc2-c2ccc(S(C)(=O)=O)cc2)CC1` [Example 318, 3-(4-Chlorophenyl)-2-[4-(4-methanesulfonyl-phenyl)-5-(4-methyl-piperazine-1-yl)-thiophen-2-yl]-3H-quinazolin-4-one] the inhibition in vivo at 50 mg/kg was 21%.
Compound `Nc1nc(Nc2ccccc2)sc1C(=O)c1ccc(Cl)cc1` [Example 323, (4-Amino-2-phenylamino-thiazol-5-yl)-(4-chloro-phenyl)-methanone] has an inhibition in vivo at 50 mg/kg of 43%.
Work on `Nc1nc(Nc2ccccc2)sc1C(=O)c1ccc(Cl)cc1Cl` [Example 324, (4-Amino-2-phenylamino-thiazol-5-yl)-(2,4-dichloro-phenyl)-methanone] yielded an inhibition in vivo at 50 mg/kg of 55%.
Compound `CS(=O)(=O)c1ccc(C(=O)c2sc(Nc3ccccc3)nc2N)cc1` [Example 325, (4-Amino-2-phenylamino-thiazol-5-yl)-(4-methanesulfonyl-phenyl)-methanone] has an inhibition in vivo at 50 mg/kg of 12%.
`CC(=O)Nc1ccc(C(=O)c2sc(Nc3ccccc3)nc2N)cc1` [Example 326, N-[4-(4-Amino-2-phenylamino-thiazole-5-carbonyl)-phenyl]-acetamide] gave an inhibition in vivo at 50 mg/kg of 34%.
`Nc1nc(Nc2ccccc2)sc1C(=O)c1cccnc1` [Example 327, (4-Amino-2-phenylamino-thiazol-5-yl)-pyridin-3-yl-methanone] was tested, and the inhibition in vivo at 50 mg/kg was 32%.
Work on `Nc1nc(Nc2ccccc2)sc1C(=O)c1ccncc1` [Example 328, (4-Amino-2-phenylamino-thiazol-5-yl)-pyridin-4-yl-methanone] yielded an inhibition in vivo at 50 mg/kg of 76%.
`Nc1nc(Nc2ccccc2)sc1C(=O)c1ccccn1` [Example 329, (4-Amino-2-phenylamino-thiazol-5-yl)-pyridin-2-yl-methanone] was tested, and the inhibition in vivo at 50 mg/kg was 54%.
Compound `COc1c(C)cnc(-c2sc(Nc3ccccc3)nc2N)c1C` [Example 330, 5-(4-Methoxy-3,5-dimethyl-pyridin-2-yl)-N2-phenyl-thiazole-2,4-diamine] has an inhibition in vivo at 50 mg/kg of 24%.
`Nc1nc(Nc2ccc(Cl)cc2)sc1C(=O)c1ccc(Cl)cc1Cl` [Example 335, [4-Amino-2-(4-chloro-phenylamino)-thiazol-5-yl]-(2,4-dichloro-phenyl)-methanone] gave an inhibition in vivo at 50 mg/kg of 30.3%.
`CS(=O)(=O)c1ccc(C(=O)c2sc(Nc3ccc(Cl)cc3)nc2N)cc1` [Example 336, [4-Amino-2-(4-chloro-phenylamino)-thiazol-5-yl]-(4-methanesulfonyl-phenyl)-methanone] showed an inhibition in vivo at 50 mg/kg of 28.3%.
`Nc1nc(Nc2ccc(Cl)cc2)sc1C(=O)c1ccncc1` [Example 339, [4-Amino-2-(4-chloro-phenylamino)-thiazol-5-yl]-pyridin-4-yl-methanone] showed an inhibition in vivo at 50 mg/kg of 12%.
`Cc1c(OCC(F)(F)F)ccnc1-c1sc(Nc2ccc(Cl)cc2)nc1N` [Example 342, (N2-(4-Chloro-phenyl)-5-[3-Methyl-4-(2,2,2-trifluoro-ethoxy)-pyridin-2-yl]-thiazole-2,4-diamine)] was tested, and the inhibition in vivo at 50 mg/kg was 76%.
In the case of `COc1ccc(Nc2nc(N)c(C(=O)c3ccc(OC)cc3)s2)cc1` [Example 343, ([4-Amino-2-(4-methoxy-phenylamino)-thiazol-5-yl]-(4-methoxy-phenyl)-methanone)], the inhibition in vivo at 50 mg/kg is reported as 54%.
`COc1ccc(Nc2nc(N)c(C(=O)c3ccc(Cl)cc3)s2)cc1` [Example 345, ([4-Amino-2-(4-methoxy-phenylamino)-thiazol-5-yl]-(4-chloro-phenyl)-methanone)] showed an inhibition in vivo at 50 mg/kg of 34.6%.
`COc1ccc(Nc2nc(N)c(C(=O)c3ccc(S(C)(=O)=O)cc3)s2)cc1` [Example 347, ([4-Amino-2-(4-methoxy-phenylamino)-thiazol-5-yl]-(4-methanesulfonyl-phenyl)-methanone)] showed an inhibition in vivo at 50 mg/kg of 30.3%.
Work on `COc1ccc(Nc2nc(N)c(C(=O)c3ccc(NC(C)=O)cc3)s2)cc1` [Example 348, (N-{4-[4-Amino-2-(4-methoxy-phenylamino)-thiazole-5-carbonyl]-phenyl}-acetamide)] yielded an inhibition in vivo at 50 mg/kg of 28.3%.
For `COc1ccc(Nc2nc(N)c(C(=O)c3ccncc3)s2)cc1` [Example 350, ([4-Amino-2-(4-methoxy-phenylamino)-thiazol-5-yl]-pyridin-4-yl-methanone)], the inhibition in vivo at 50 mg/kg was 25.8%.
Work on `COc1ccc(Nc2nc(N)c(-c3ncc(C)c(OC)c3C)s2)cc1` [Example 352, (5-(4-Methoxy-3,5-dimethyl-pyridin-2-yl)-N2-(4-methoxy-phenyl)-thiazole-2,4-diamine)] yielded an inhibition in vivo at 50 mg/kg of 23%.
In the case of `COc1ccc(C(=O)c2sc(Nc3ccc(Cl)cc3)nc2NC(=O)Nc2ccc(F)cc2)cc1` [Example 355, 1-[2-(4-Chloro-phenylamino)-5-(4-methoxy-benzoyl)-thiazol-4-yl]-3-(4-fluoro-phenyl)-urea], the inhibition in vivo at 50 mg/kg is reported as 62.6%.
For `O=C(Nc1ccc(F)cc1)Nc1nc(Nc2ccc(Cl)cc2)sc1C(=O)c1ccc(Cl)cc1` [Example 357, 1-[5-(4-Chloro-benzoyl)-2-(4-chloro-phenylamino)-thiazol-4-yl]-3-(4-fluoro-phenyl)-urea], the inhibition in vivo at 50 mg/kg was 24.3%.
For `O=C(Nc1ccc(F)cc1)Nc1nc(Nc2ccc(Cl)cc2)sc1C(=O)c1ccc(Cl)cc1Cl` [Example 358, 1-[2-(4-Chloro-phenylamino)-5-(2,4-dichloro-benzoyl)-thiazol-4-yl]-3-(4-fluoro-phenyl)-urea], the inhibition in vivo at 50 mg/kg was 72.5%.
In the case of `O=C(Nc1ccc(F)cc1)Nc1nc(Nc2ccc(Cl)cc2)sc1C(=O)c1cccnc1` [Example 359, 1-[2-(4-Chloro-phenylamino)-5-(pyridine-3-carbonyl)-thiazol-4-yl]-3-(4-fluoro-phenyl)-urea], the inhibition in vivo at 50 mg/kg is reported as 64.2%.
Compound `O=C(Nc1ccc(F)cc1)Nc1nc(Nc2ccc(Cl)cc2)sc1C(=O)c1ccncc1` [Example 360, 1-[2-(4-Chloro-phenylamino)-5-(pyridine-4-carbonyl)-thiazol-4-yl]-3-(4-fluoro-phenyl)-urea] has an inhibition in vivo at 50 mg/kg of 69.8%.
`Cc1cc(-c2sc(Nc3ccc(Cl)cc3)nc2NC(=O)Nc2ccc(F)cc2)ncc1OCC(F)(F)F` [Example 361, 1-{2-(4-Chloro-phenylamino)-5-[4-methyl-5-(2,2,2-trifluoro-ethoxy)-pyridin-2-yl]-thiazol-4-yl}-3-(4-fluoro-phenyl)-urea] was tested, and the inhibition in vivo at 50 mg/kg was 77.9%.
`COc1ccc(Nc2nc(NC(=O)Nc3ccc(F)cc3)c(C(=O)c3ccc(C)cc3)s2)cc1` [Example 362, 1-[2-(4-Methoxy-phenylamino)-5-(4-methyl-benzoyl)-thiazol-4-yl]-3-(4-fluoro-phenyl)-urea] gave an inhibition in vivo at 50 mg/kg of 61.3%.
`COc1ccc(Nc2nc(NC(=O)Nc3ccc(F)cc3)c(C(=O)c3ccc(Cl)cc3)s2)cc1` [Example 363, 1-[5-(4-Chloro-benzoyl)-2-(4-methoxy-phenylamino)-thiazol-4-yl]-3-(4-fluoro-phenyl)-urea] showed an inhibition in vivo at 50 mg/kg of 54.5%.

Same assay, conditions: rat paw edema, 50 mg/kg, reading 3 hours after carrageenan; [(Control−Test)/Control]×100%
With `Cc1ccc(C(=O)c2sc(Nc3ccccc3)nc2N)cc1` [Example 322, 4-Amino-(2-phenylamino-thiazol-5-yl)-p-tolyl-methanone] the “% Protection P” value was 23.98%.
`COc1c(C)cnc(-c2sc(Nc3ccc(Cl)cc3)nc2N)c1C` [Example 341] was tested, and the “% Protection P” value was 32%.
For `COc1ccc(Nc2nc(NC(=O)Nc3ccc(F)cc3)c(C(=O)c3ccc(S(C)(=O)=O)cc3)s2)cc1` [Example 364, 1-(4-Fluoro-phenyl)-3-[5-(4-methanesulfonyl-benzoyl)-2-(4-methoxy-phenylamino)-thiazol-4-yl]-urea], the “% Protection P” value was 66.78%.

Same assay, conditions: rat paw edema, 50 mg/kg, reading 3 hours after carrageenan; [(Control−Test)/Control]×100%; 50 mg/kg
`COc1ccc(C(=O)c2sc(Nc3ccccc3)nc2N)cc1` [Example 321, 4-Amino-(2-phenylamino-thiazol-5-yl)-(4-methoxy-phenyl)-methanone] was tested, and the “% Protection P” value was 12.25%.
With `COc1ccc(C(=O)c2sc(Nc3ccccc3)nc2NC(=O)Nc2ccc(F)cc2)cc1` [Example 354, 1-(4-Fluoro-phenyl)-3-[5-(4-methoxy-benzoyl)-2-phenylamino-thiazol-4-yl]-urea] the “% Protection P” value was 26.27%.

From patent US8829014B2, “Thiazole and thiophene analogues, and their use in treating autoimmune diseases and cancers” (Board of Supervisors of Louisiana State University and …, priority 2006, dated 2014)
